Measured values published in US11596622B2, “Mazindol treatment for heroin dependence and substance use disorder” (NLS Pharmaceutics AG, priority 2017, dated 2023).

Legend:
C57BL/6J mice = test: Effect of treatment on the conditioned place preference induced by heroin; format: in vivo; details: for Distance travelled in the drug-paired compartment / Distance travelled in the two compartments (Drug + Vehicle) / Distance travelled in the vehicle-paired compartment / Distance travelled, drug-paired minus vehicle-paired compartment / Time spent in the drug-paired compartment / Time spent in the vehicle-paired compartment / Time spent, drug-paired minus vehicle-paired compartment: mean
Text: Conditioned place preference (CPP) is a widely used procedure for studying the potential addictive effect of drugs. CPP is based upon the tendency of rodents to approach a stimulus that has previously been paired with an incentive state induced by a drug. A drug that induces a CPP may be suspected to present reinforcing effects that could lead to addiction. Numerous addictive drugs, such as opiate agonists or stimulants induce a CPP and a behavioral sensitization.
The effect of mazindol on place preference was examined in C57BL/6J mice using a method similar to the one used by Schlussman et al. (9).
The third experiments consisted in examining the effects of mazindol and D-amphetamine (at doses chosen from results of the first part of the study) on the place preference induced by heroin at a dose chosen from results of the second experiment, which was 1.25 mg/kg. Mazindol (0.125, 0.25 and 0.5 mg/kg) and D-amphetamine (0.5 mg/kg) were tested.
Therefore, it was decided to perform an additional experiment to examine the effects on place preference induced by heroin of mazindol at 1 and 2 mg/kg and of D-amphetamine at 1 mg/kg.
(§1) Following the habituation session (on day 1), animals (N=72) were pseudo-randomly assigned to two groups, a Control group (N=12) and a Heroin group (N=60), in a way that there was no significant difference between the two groups for the total distance travelled in the apparatus and for the percentage of time spent and the percentage distance travelled in the grey compartment and in the striped compartment.
Animals received the following treatments immediately before drug sessions: • Control group: vehicle • Heroin group: heroin (1.25 mg/kg)
(§2) Following the last conditioning session, the Heroin group was pseudo-randomly divided into 5 groups (N=12/group) in a way that there was no significant difference between groups for the total distance travelled in the apparatus and for the percentage of time spent and the percentage distance travelled in the grey compartment and in the striped compartment in habituation session, for the distance travelled in the drug-paired and in the vehicle-paired compartments in conditioning sessions and for the proportion of striped drug-paired compartments.
Animals received the following treatments before preference session: • Control group: vehicle of mazindol, i.p. 60 min before testing. • Hero group: vehicle of mazindol, i.p. 60 min before testing. • Hero-A 0.5 group: D-amphetamine (0.5 mg/kg), i.p. 30 min before testing. • Hero-Mz 0.125 group: mazindol (0.125 mg/kg), i.p. 60 min before testing. • Hero-Mz 0.25 group: mazindol (0.25 mg/kg), i.p. 60 min before testing. • Hero-Mz 0.5 group: mazindol (0.5 mg/kg), i.p. 60 min before testing.
as §1, with “three” for “two”, “(N=12),” for “(N=12) and”, “(N=48) and a Mazindol group (N=12),” for “(N=60),”
Animals received the following treatments before drug sessions: • Control group: vehicle, i.p. immediately before session. • Heroin group: heroin (1.25 mg/kg), i.p. immediately before session. • MAZ 2 group: mazindol (2 mg/kg), i.p. 60 min before session.
as §2, with “into 4” for “into 5”, “there is” for “there was”, “compartments. […]” for “compartments.”

Sprague-Dawley rats = test: Naloxone precipitated withdrawal syndrome of heroin; format: in vivo
Description: The abrupt cessation of chronic opiate use results in a well characterized withdrawal syndrome with symptoms that include pain sensitivity, dysphoria, irritability, restlessness, insomnia, diarrhea and hyperventilation. In the present model, the naloxone-precipitated withdrawal syndrome is measured in rodents. Animals are chronically treated with a drug, e.g. morphine or heroin. Opiate withdrawal syndrome is elicited by an acute injection of the opiate antagonist Naloxone.
The effect of mazindol on heroin withdrawal syndrome elicited by naloxone was examined in Sprague-Dawley rats using a method similar to the one used by Jiang et al. (10),
Animals were subdivided into two groups. One group received heroin two i.p. injections/day for 12 consecutive days and a single injection on the 13th day (total: 25 injections) as exposed in Table 3 group received saline instead of heroin following the same protocol.
On day 13, animals received treatments and were tested according to the following time schedule: • T=0: i.p. injection of heroin (15 mg/kg) or vehicle. • T=2.5 h: animals individually placed in a transparent Plexiglas observation boxes (40×40×40 cm). • T=3.5 h: i.p. injection of treatment (see below). • T=4 h: i.p. injection of naloxone (5 mg/kg), start of test: observation of withdrawal symptoms as indicated in Table 4. • T=5 h: end of test, animals placed back into their home cages.
Animals received the following treatments at T 3.5 h (i.e. 30 min before injection of naloxone and observation of symptoms): • 1) Animals treated with saline during the intoxication period (days 1-12) and at T0 on day 13: • Saline group (N=8): saline (0.9% NaCl). • 2) Animals treated with […] during the intoxication period (days 1-12) and at T0 on day 13: • Hero group (N=14): saline (0.9% NaCl). • Amph 1 group (N=4): D-amphetamine (1 mg/kg). • Maz 0.125 group (N=5): mazindol (0.125 mg/kg). • Maz 0.25 group (N=6): mazindol (0.25 mg/kg). • Maz 0.5 group (N=6): mazindol (0.5 mg/kg). • Maz 1 group (N=6): mazindol (1 mg/kg). • Maz 2 group (N=5): mazindol (2 mg/kg).
A weighting factor was ascribed for each sign from which a score was calculated.
Examples: • Body weight before naloxone injection=241 g; after naloxone injection=236 g: • Weight loss score=2=100×(241−236)/241 • Number of escape attempts=8: • Score for escape attempts=2 • Profuse salivation present: • Score for profuse salivation
A global withdrawal score was then calculated: • Global score=the sum of the scores

[1] = Hero-A 0.5: heroin 1.25 mg/kg conditioning, D-amphetamine 0.5 mg/kg i.p. 30 min before preference session
[2] = Hero-A 1: heroin 1.25 mg/kg conditioning, D-amphetamine 1 mg/kg i.p. 30 min before preference session
[3] = Amph 1: heroin-treated rats, D-amphetamine 1 mg/kg i.p. 30 min before naloxone 5 mg/kg, mean

## C[C@H](N)Cc1ccccc1.C[C@H](N)Cc1ccccc1.O=S(=O)(O)O [D-amphetamine, D-amphetamine sulfate]
C57BL/6J mice; D-amphetamine 0.5 mg/kg
  effect on the heroin-induced increase of distance travelled in the drug-paired compartment: had no effect
  effect on the heroin-induced increase of time spent in the drug-paired compartment: non-significantly reduced
C57BL/6J mice; D-amphetamine 1 mg/kg
  effect on the heroin-induced increases of time spent and distance travelled in the drug-paired compartment: did not modify
C57BL/6J mice; D-amphetamine 0.5, 1 mg/kg i.p. before preference session
  effect on the place preference induced by heroin: do not show a reliable effect
C57BL/6J mice; D-amphetamine 0.5 and 1 mg/kg i.p. before preference session
  total distance travelled in two compartments (FIG. 3): at 0.5 mg/kg, but not at 1 mg/kg decreased the total distance travelled in two compartments
C57BL/6J mice; [1]
  Distance travelled in the drug-paired compartment: 6797.2 cm
  Distance travelled in the two compartments (Drug + Vehicle): 11379.9 cm
  Distance travelled in the vehicle-paired compartment: 4582.7 cm
  Distance travelled, drug-paired minus vehicle-paired compartment: 2214.6 cm
  Time spent in the drug-paired compartment: 984.5 s
  Time spent in the vehicle-paired compartment: 815.5 s
  Time spent, drug-paired minus vehicle-paired compartment: 168.9 s
C57BL/6J mice; [2]
  Distance travelled in the drug-paired compartment: 7416.7 cm
  Distance travelled in the two compartments (Drug + Vehicle): 13005.6 cm
  Distance travelled in the vehicle-paired compartment: 5588.9 cm
  Distance travelled, drug-paired minus vehicle-paired compartment: 1827.8 cm
  Time spent in the drug-paired compartment: 1048.3 s
  Time spent in the vehicle-paired compartment: 751.7 s
  Time spent, drug-paired minus vehicle-paired compartment: 296.5 s
Sprague-Dawley rats; [3]
  Abdominal constrictions score (Abd C): 0.0
  Abnormal posture score (Ab P): 0.0
  Chromodacryorrhea score (Chr): 5.0
  Diarrhea score (Diarr): 2.0
  Erection or ejaculation score (Er Ej): 0.0
  Escape attempts score (Esc A): 1.8
  Facial fasciculation or teeth chattering score (F F T C): 2.0
  Global Score: 22.5
  Irritability score (Irrit): 0.0
  Profuse salivation score (Pr Sal): 5.3
  Ptosis score (Ptos): 0.0
  Swallowing movements score (Sw M): 1.0
  Weight loss score (W Los): 2.0
  Wet dog shakes score (W D S): 3.5
Sprague-Dawley rats; D-amphetamine 1 mg/kg
  effect on naloxone precipitated withdrawal symptoms of heroin: did not reduce the withdrawal symptoms of heroin
Sprague-Dawley rats; D-amphetamine 1 mg/kg, increase not significant
  effect on chromodacryorrhea: tended to increase
